pIC50: −log10 of the molar value. Where two headings read alike, the source gives them in different places.
How the values were obtained:
[1] = system: isolated ileum; assay: Agonist action on isolated guinea-pig ileum; conditions: negative logarithm of the dose producing 50% of maximum effect
Experimental: (§1) The interaction of the compounds with various receptors was evaluated on the isolated ileum of a guinea-pig according to the following method.
(§2) Segments of the ileum of guinea-pigs of 2.5-3 cm were washed and immediately suspended in a bath containing 10 ml of Tyrode's solution at 37° C. and aerated with a mixture of oxygen (95%) and carbon dioxide (5%). After a stabilization period of at least 30 minutes contractions were recorded, while the preparation was maintained under constant tension of 1 g, by means of a detector connected to a polygraph. The agonistic action was evaluated by leaving the compound in contact with the isolated tissue for a period necessary to show the maximum […]; then it was washed with the Tyrode's solution. The following dose was added only after the preparation had returned to its base line. Arecoline was used as a reference product. The antagonist action was evaluated on the contractions induced by acetylcholine (1×10^-6 M), histamine (1×10^-5 M), serotonine (1×10^-6 M) and barium chloride (2×10^-4 M). […] The contact time before adding the agonist was one minute.
(§3) For each compound the does response curves are obtained with 4 to 6 different concentrations and 3 to 5 independent tests. The agonist activity is expressed by pD2 (negative logarithm of the dose which produces 50% of the maximum effect).

[2] = system: contractions induced by barium chloride, isolated ileum; assay: Antagonism of barium chloride-induced contractions, isolated guinea-pig ileum; conditions: barium chloride 2×10^-4 M; contact time one minute; read-out: Antagonism with various agents (IC50): BaCL2
Experimental: as §1, §2, §3

[3] = system: contractions induced by acetylcholine, isolated ileum; assay: Antagonism of acetylcholine-induced contractions, isolated guinea-pig ileum; conditions: acetylcholine 1×10^-6 M; contact time one minute; read-out: Antagonism with various agents (IC50): Ach.
Experimental: as §1, §2, §3

[4] = biological target: T1, muscarine receptors, involved in the contractions of the colon (Rattus norvegicus, UniProt P08483); assay: Antagonist affinity and type of antagonism (Schild), isolated colon of rat
T1 construct: segments of the colon of rats of about 2.5 cm; from tissue; host or cells: isolated rat colon segments
T1 sequence (P08483 whole entry): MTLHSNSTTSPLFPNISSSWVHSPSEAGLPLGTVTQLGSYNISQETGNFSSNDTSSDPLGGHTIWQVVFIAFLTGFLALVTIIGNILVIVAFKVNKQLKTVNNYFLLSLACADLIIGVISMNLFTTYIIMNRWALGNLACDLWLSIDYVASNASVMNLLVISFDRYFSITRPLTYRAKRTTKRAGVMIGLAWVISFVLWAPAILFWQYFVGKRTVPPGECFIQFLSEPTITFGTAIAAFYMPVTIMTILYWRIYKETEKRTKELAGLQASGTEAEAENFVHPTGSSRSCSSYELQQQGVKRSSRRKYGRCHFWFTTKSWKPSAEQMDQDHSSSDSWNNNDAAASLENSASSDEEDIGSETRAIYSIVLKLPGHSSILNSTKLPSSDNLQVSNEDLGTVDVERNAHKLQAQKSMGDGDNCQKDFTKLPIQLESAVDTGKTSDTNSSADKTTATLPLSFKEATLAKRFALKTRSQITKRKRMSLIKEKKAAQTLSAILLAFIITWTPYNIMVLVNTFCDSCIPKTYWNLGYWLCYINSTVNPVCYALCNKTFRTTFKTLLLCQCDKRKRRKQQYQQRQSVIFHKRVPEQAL
Experimental: (§4) The following method was used: segments of the colon of rats of about 2.5 cm are washed and suspended in an insulated bath containing 10 ml of a solution of De Jalon having the following composition: (mM): NaCl 154; KCl 5.7; CaCl2 0.27; NaHCO3 5.9 and glucose 2.5. The temperature of the bath is maintained at 32° C. In these conditions, while maintaining the preparation under a tension of 1 g, the spontaneous activity of the colon is minimal. After a stabilization period of at least 30 minutes, the tension variations are recorded using an isometric transducer connected to a recorder. A series of tests was carried out to evaluate the antagonist activity in relation to the contractions induced by a maximum dose of acetylcholine. (3×10^-6 M).
For each compound the dose-response curves are obtained with 4 to 6 different concentrations and 3 to 5 independent tests.
In a second series of tests the acetylcholine is added to the bath in cumulative doses according to the van Rossum method (J. M. van Rossum, Arch, Int. Pharmacodyn. 143, 299, 1963). Having obtained two equal and consecutive dose-response curves with acetylcholine, a third dose-responsecurve is obtained in the presence of the compound (contact time of compound before acetylcholine=5 min.) Each compound was tested with 3-4 different concentrations
The antagonist affinity and the type of antagonism (competitive, non-competitive) for the muscarine receptors was calculated according to Schild's method (H. D. Schild, Brit. J. Pharmacol. 2, 189, 1947).

[5] = system: contractions induced by acetylcholine, isolated colon; assay: Antagonism of acetylcholine-induced contractions, isolated colon of rat; conditions: acetylcholine 3×10^-6 M; contact 3 minutes
Experimental: The remarkable antagonist action of the compounds of the invention was confirmed on the isolated colon of rats. In this test it was established whether the antagonist activity was of competitive or non-competitive type.
as §4
The compounds are left in contact with the preparation for 3 minutes before adding acetylcholine.
Atropine was used as a reference product. For each compound the dose-response curves are obtained with 4 to 6 different concentrations and 3 to 5 independent tests.

[6] = system: cholinomimetic effects induced by carbachol; assay: In vivo anticholinergic action: inhibition of carbachol-induced cholinomimetic effects; design: species or system CD1 male mice; conditions: for ED50 / ED (1 degree C): Mus musculus, ip, 0.5 h; for ED (1 degree C): rectal temperature, read-out: Body Temperature: dose able to increase by 1° C. the hypothermic effect induced by carbachol
Experimental: The anticholinergic activity of the compounds was determined by evaluating the capacity to inhibit cholinomimetic effects induced by carbachol. Atropine sulphate was used as reference product.
CD1 male mice are used weighing 25 to 30 g. They are divided into groups of 5 animals and treated by intraperitoneal route, in scaled doses, with the products or with 0.25% of Methocel for the controls. 10 animals are used for each dose. 30 minutes after the administration of the compounds, the mice are subcutaneously injected with 1 mg/kg of carbachol, dissolved in physiological serum.
Each animal was examined 30 minutes after the injection of carbachol to evaluate the presence of diarrhea, salivation and watering of the eyes; the body temperature was also measured using a thermocouple inserted 1.5 cm into the rectum.
For each compound, there was determined, and recorded in the following table, the dose able to inhibit, in 50% of the animals, the appearance of peripheral cholinomimetic symptoms induced by carbachol, and to increase by 1° C. the hypothermic effect induced by the cholinergic agent.

[7] = Solubility in various solvents; type: physicochemical
[8] = i.p., carbachol 1 mg/kg s.c. 30 min later, read-out: dose able to inhibit, in 50% of the animals, Diarrhea
[9] = i.p., carbachol 1 mg/kg s.c. 30 min later, read-out: dose able to inhibit, in 50% of the animals, Salivation
[10] = i.p., carbachol 1 mg/kg s.c. 30 min later, read-out: dose able to inhibit, in 50% of the animals, Watering of Eyes
[11] = i.p., carbachol 1 mg/kg s.c. 30 min later

SMILES: COC(=O)C1=CCCN(C)C1 [Arecoline, reference compound]
- Agonist Action (pD2) [1]: 6.68

SMILES: COc1ccc(Cc2nccc3cc(OC)c(OC)cc23)cc1OC [Papaverine, reference compound]
- pIC50 [2]: 4.35

SMILES: CN1[C@@H]2CC[C@H]1C[C@@H](OC(=O)C(CO)c1ccccc1)C2 (stereo partly shown) [Atropine, reference compound]
- pIC50 [3]: 8.02
- "Slope" of Schild plot, isolated colon of rat ([4]; cumulative acetylcholine, Schild's method, contact 5 min): 0.97
- displacement of the dose-response curve of acetylcholine ([4]; isolated colon of rat, in words): parallel displacement towards the right of the dose-response curve of acetyl-choline without reducing the maximum contraction
- pIC50 [5]: 7.57
- ED50 ([6]; read-out: dose able to inhibit, in 50% of the animals, Diarrhea): 0.04 mg/kg
- ED50 ([6]; read-out: dose able to inhibit, in 50% of the animals, Salivation): 0.06 mg/kg
- ED50 ([6]; read-out: dose able to inhibit, in 50% of the animals, Watering of Eyes): 0.05 mg/kg

SMILES: O=C1CCCN1S(=O)(=O)c1ccc(N2CCCCCC2)cc1 [Example 18, 1-[4-(4-hexahydroazepin)phenylsulphonyl]-2-pyrrolidinone]
- ED50 [6, 8]: 1 mg/kg
- ED50 [6, 9]: 15 mg/kg
- ED50 [6, 10]: 50 mg/kg
- ED (1 degree C) [6, 11]: 15 mg/kg

SMILES: CN(C)c1ccc(S(=O)(=O)N2CCCC2=O)cc1 [Example 3]
- solubility ([7]; 2N hydrochloric acid): insoluble
- solubility ([7]; 2N sodium hydroxide): insoluble
- solubility ([7]; acetone): slightly soluble
- solubility ([7]; alcohol at 95°): slightly soluble
- solubility ([7]; benzene): slightly soluble
- solubility ([7]; chloroform): Soluble
- solubility ([7]; ethyl ether): insoluble
- solubility ([7]; water): insoluble

SMILES: C[N+](C)(C)CCOC(N)=O [carbachol, reference compound]
- decrease in rectal temperature ([6]; carbachol 1 mg/kg s.c., control mice): about 2.5 °C
- induction of diarrhea, salivation and watering of the eyes ([6]; carbachol 1 mg/kg s.c., control mice, in words): induced diarrhea, salivation and watering of the eyes in all the control mice

SMILES: O=C1CCCN1S(=O)(=O)c1ccc(N2CCCCC2)cc1 [Example 10, 1-[4-(1-piperidinyl)phenylsulphonyl]-2-pyrrolidinone]
- ED50 [6, 8]: 3 mg/kg
- ED50 [6, 9]: 50 mg/kg
- ED50 [6, 10]: > 50 mg/kg
- ED (1 degree C) [6, 11]: > 50 mg/kg
- selective anticholinergic action in vivo ([6]; i.p., mice, in words): selective anticholinergic action on the intestinal musculature

— patent US4990531A, “Derivatives of 1-arylsulphonyl-2-pyrrolidinone and their use as medicaments” (Roussel Uclaf, priority 1988, dated 1991)
